Laboratory results reported in US9018188B2, “MicroRNA inhibitors” (Ottawa Hospital Research Institute, priority 2011, dated 2015).

Tested on: miR-133
Assay: miR-133 biosensor luciferase assay in C2C12 myoblast clones
Assay type: cell-based
Settings: C2C12 clone A10, 48 hours in growth media; TGF-β 10 ng/mL, Insulin 850 nM, IBMX 0.5 mM, AICAR 0.5 mM, Dexamethasone 1
Excerpt: The design of the miR-133 biosensor is based on the principle that recognition of microRNA target sites in 3′UTR by microRNA/RISC leads to the inhibition of the translation of the target mRNAs. An artificial 3′UTR containing optimized miR-133 target sites in tandem was designed and cloned downstream of the open reading frames of firefly luciferases and GFP, which in together function as miR-133 biosensor (FIG. 9A), in a lentiviral vector. C2C12 myoblast clones were infected with lentiviruses carrying the miR-133 biosensor and selected for stable expression of the reporter construct. Activity of potential modulators or miR-133 is tested and read as a reverse correlation between miR-133 functionality and luciferase/GFP intensities. The construct can be used for live-cell imaging (in vitro and in vivo) and allows real-time detection.
Two miR-133 biosensor plasmids were constructed—pCMV-FireflyLuc_miR133TS_EF1_Puro and pCMV-RenillaLuc—133TS_EF1_Puro. In the pCMV-FireflyLuc—133TS_EF1_Puro plasmid, five tandem miR-133 target sites (miR133TS; 5′-[…]-3′, SEQ ID NO:22) was cloned downstream of a firefly luciferase ORF (with a stop codon), which is driven by a CMV promoter. These miR-133 target sites in whole serve as an artificial 3′ UTR of firefly luciferase transcript. The “GGACCAAA” sequence in the miR-133 target sites is complementary to the nucleotide positions 1-8 in miR-133a and miR-133b. The “TAGCTGGTTG” sequence in the miR-133 target sites is complementary to the nucleotide positions 13-22 in miR-133a and miR-133b. The remaining sequence “CCA” sequence in the middle will not anneal to the miR-133a or miR-133b, which will form a “bulge” structure when miR-133a/b anneal to the RNA transcript of miR-133 target sites. This fireflyLuc_miR133TS cassette was further cloned into a lentivirus backbone. In the pCMV-RenillaLuc—133TS_EF1_Puro plasmid, the firefly luciferase ORF was replaced by a renilla luciferase ORF. pCMV-FireflyLuc_miR133TS_EF1_Puro and pCMV-RenillaLuc—133TS_EF1_Puro plasmids were used to generate lentivirus particles in 293T cells, which were used to infect C2C12 myoblasts. Infected C2C12 myoblasts were selected by Puromycin (2 mg/L) and clonally expanded. C2C12 clones, C11 and C3, were used in subsequent experiments.
In one experiment, a C2C12 clone C11 (25,000 cells per well on 24-well plates), was transfected with 0.5 nM and 5 nM miR-133 mimetics (Life Technologies/Ambion), which can be processed into mature miR-133 in cells. […] Both experiments were performed with 6 replicates and Z-scores above 0.5 were achieved.
In one experiment, a C2C12 clone (A10; 25,000 cells per well in 24-well plates) was treated with drugs and biologics for 48 hours in growth media. […]

`NC(=O)c1ncn([C@@H]2O[C@H](CO)[C@@H](O)[C@H]2O)c1N` [AICAR, 5′ amino-1-βD-ribofuranosyl-imidazole-4-carboxamide, reference compound] was tested. Which “effect on miR-133 by luciferase assays” value did it give?
The value was “enhancers of miR-133”.

How did the “effect on miR-133 by luciferase assays” value turn out when `CC(C)Cn1c(=O)n(C)c(=O)c2[nH]cnc21` [IBMX, 3-isobutyl-1-methylxanthine, reference compound] was run?
Its value is “enhancers of miR-133”.

Which “effect on miR-133 by luciferase assays” value does the source give for Insulin here?
Its value is “inhibitors of miR-133”.

For TGF-β, which “effect on miR-133 by luciferase assays” value is on record?
Its value is “inhibitors of miR-133”.
